Data reported in PMC12040169 (PLOS Biology, 2025).

Assay: in vitro
Conditions: human, hela cells

Row | Compound | viability at 28.5 h, 10 µM (% viability) [%] | viability at 28.5 h, 10 µM [%]
1 | Cc1cnc(CNC(=O)N2CCN(c3cc(C(F)(F)F)ccn3)CC2)cn1 [CBK162320] | 107 | –
2 | O=C(NCC1CCCCC1)N1CCN(c2cc(C(F)(F)F)ccn2)CC1 [CBK162323] | 103 | –
3 | COc1ccc(CCNC(=O)N2CCN(c3cc(C(F)(F)F)ccn3)CC2)cc1OC [CBK162330] | 105 | –
4 | CC(NC(=O)N1CCN(c2cc(C(F)(F)F)ccn2)CC1)c1ccccc1 (centres unmarked) [CBK162350] | 91.7 | –
5 | CCOC(=O)N1CCC(NC(=O)N2CCN(c3cc(C(F)(F)F)ccn3)CC2)CC1 [CBK162353] | 103 | –
6 | CN(Cc1ccc(-c2ccc(S(C)(=O)=O)cc2)nc1)C1CCNCC1 [CBK163942] | 99.1 | –
7 | CC(C)(C)OC(=O)N1CCC(Oc2nccnc2OCc2ccc(Cl)cc2F)CC1 [CBK163968] | 104 | –
8 | CN(Cc1ccc(-c2ccc(S(C)(=O)=O)cc2)nc1)C1CCN(C(=O)CC(F)(F)F)CC1 [CBK164098T] | 99.3 | –
9 | COc1ccc(CCC(=O)N2CCC(N(C)Cc3ccc(-c4ccc(S(C)(=O)=O)cc4)nc3)CC2)cc1Cl [CBK164102T] | 86.6 | –
10 | CN(Cc1ccc(-c2ccc(S(C)(=O)=O)cc2)nc1)C1CCN(C(=O)Cc2cccc(C(F)(F)F)c2)CC1 [CBK164104T] | 90.2 | –
11 | CC(=O)NCc1cccc(-c2cc(COc3ccc4c(c3)OCO4)cnc2-c2ccc(Cl)cc2)c1 [CBK164106A] | 105 | –
12 | CCc1ccc(CNC(=O)Cn2nnc(-c3ccc(C(C)N4CCC(C)CC4)cc3)n2)cc1 (centres unmarked) [CBK164199T] | 97.5 | –
13 | COc1cc(OC)cc(C(=O)N2CCC3(CC2)CC(=O)c2cc(C)c(C)cc2O3)c1 [CBK164201] | 83.3 | –
14 | CC(=O)NCc1cccc(-c2cc(C(=O)NCCc3cccc(OC(F)(F)F)c3)cnc2-c2ccc(Cl)cc2)c1 [CBK164414] | 84.7 | –
15 | CC(=O)NCc1cccc(-c2cc(C(=O)NCC3CN(Cc4ccccc4)CCO3)cnc2-c2ccc(Cl)cc2)c1 (centres unmarked) [CBK164416T] | 88.5 | –
16 | Cc1ccc(CNC(=O)Cn2cc(-c3ccc(CN4CCC(C)CC4)cc3)nn2)cc1 [CBK164706] | 87.1 | –
17 | CC1CCN(Cc2ccc(-c3cn(CC(=O)NCc4ccc(Br)cc4)nn3)cc2)CC1 [CBK164709] | 93 | –
18 | CC(C)CCNCc1ccc(-c2cn(CC(=O)NCCc3ccccc3)nn2)cc1 [CBK164740] | 95.9 | –
19 | Cc1nc2c(C(=O)NC3CCOCC3)cnn2c(C)c1Cc1cccc(Br)c1 [CBK165011] | 92.3 | –
20 | Cn1cnc(S(=O)(=O)N(c2ccc(C(C)(C)C)cc2)C2CCNCC2)c1 [CBK165046T] | 87.5 | –
21 | CC(=O)Nc1ccc(S(=O)(=O)N(c2ccc(C(C)(C)C)cc2)C2CCNCC2)cc1 [CBK165062T] | 90.4 | –
22 | Cc1cc(S(=O)(=O)N(c2ccc(C(C)(C)C)cc2)C2CCNCC2)c(C)s1 [CBK165075T] | 105 | –
23 | O=S(=O)(CC(F)(F)F)N(c1ccccc1)C1CCNCC1 [CBK165093T] | 92.6 | –
24 | O=C1CCCN1c1ccc(S(=O)(=O)N(c2ccccc2)C2CCNCC2)cc1 [CBK165122T] | 109 | –
25 | CC(C)CCN(Cc1ccc(-c2ccc(S(C)(=O)=O)cc2)nc1)C1CCN(C(=O)OC(C)(C)C)CC1 [CBK165138] | 83.4 | –
26 | COCCNC(=O)c1cnn2c(C)c(Cc3ccccc3C(F)(F)F)c(C)nc12 [CBK165210] | 95.7 | –

Row | Compound | viability at 28.5 h, 10 µM (% viability) [%] | viability at 28.5 h, 10 µM [%]
27 | CC(C)COC(=O)N1CCC(N(C)Cc2ccc(-c3ccc(S(C)(=O)=O)cc3)nc2)CC1 [CBK165259T] | 90.4 | –
28 | CC(C)OC(=O)N1CCC(N(C)Cc2ccc(-c3ccc(S(C)(=O)=O)cc3)nc2)CC1 [CBK165261T] | 121 | –
29 | COc1ccc(S(=O)(=O)N(Cc2cc(F)cc(F)c2)C2CCNCC2)cc1 [CBK165292T] | 89.8 | –
30 | CC1CCN(Cc2ccc(-c3cn(CC(=O)NCc4ccc(Br)cc4F)nn3)cc2)CC1 [CBK165756C] | 91.1 | –
31 | CC(C)(C)OC(=O)N1CCC(N2CCc3cc(-c4ccc(S(C)(=O)=O)cc4)ccc3C2)CC1 [CBK165796] | 82.7 | –
32 | Cc1cccc(C(=O)N2CCC(N(C)Cc3ccc(-c4ccc(S(C)(=O)=O)cc4)nc3)CC2)n1 [CBK165937T] | 81.5 | –
33 | CN(Cc1ccc(-c2ccc(S(C)(=O)=O)cc2)nc1)C1CCN(C(=O)c2cc(Cl)ccc2Cl)CC1 [CBK165943T] | 84.5 | –
34 | CC1CCN(Cc2ccc(-c3cn(CC(=O)NCc4ccc(Br)cc4)cn3)cc2)CC1 [CBK165969] | 104 | –
35 | CC(C)CCNCc1ccc(-c2cn(CC(=O)NCc3ccc(C(F)(F)F)cc3)cn2)cc1 [CBK165976] | 91.7 | –
36 | N#Cc1ccc(-c2cncc(NC3CCC(O)CC3)n2)cc1 (centres unmarked) [CBK166007T] | 88.2 | –
37 | COc1ccc2c(c1)OC1(CCN(C(=O)c3cc(OC)c(C)c(OC)c3)CC1)NC2=O [CBK166244] | 82.6 | –
38 | COc1ccc(C(=O)N2CCC3(CC2)NC(=O)c2ccc(C(F)(F)F)cc2O3)cc1OC [CBK166265] | 102 | –
39 | COc1ccc2c(c1)C(=O)NC1(CCN(C(=O)c3ccc(OC)c(C)c3)CC1)O2 [CBK166291] | 106 | –
40 | CCCN(C)Cc1ccc(-c2cn(CC(=O)NCc3ccc4c(c3)OC(F)(F)O4)nn2)cc1 [CBK166361] | 101 | –
41 | CCCN(C)Cc1ccc(-c2cn(CC(=O)NCc3ccc(OCC(F)F)cc3)nn2)cc1 [CBK166365] | 106 | –
42 | COc1ccc(S(=O)(=O)N2CCC3(CC2)CC(=O)c2ccc(C)cc2O3)cc1OC [CBK166515] | 96.8 | –
43 | COc1cc(NC(=O)N2CCC3(CC2)CC(=O)c2ccc(C)cc2O3)cc(OC)c1 [CBK166521] | 90.3 | –
44 | CC(C)(C)OC(=O)N1CCC(N(CCC(F)(F)F)Cc2ccc(-c3ccc(S(C)(=O)=O)cc3)nc2)CC1 [CBK167262] | 81 | –
45 | Cc1cc(N2CCC(O)CC2)nc(N)n1 [CBK167265] | 109 | –
46 | Cc1cc(N2CCC(N(C)C)CC2)nc(N)n1 [CBK167267] | 106 | –
47 | Cc1nc2c(C(=O)NCCOCCO)cnn2c(C)c1Cc1cccc(OC(F)(F)F)c1 [CBK167454] | 114 | –
48 | Cc1nc2c(C(=O)NCC3OCCO3)cnn2c(C)c1Cc1ccc(Br)cc1 [CBK167467] | 99.8 | –
49 | CC(C)(O)CCN(Cc1ccc(-c2ccc(S(C)(=O)=O)cc2)nc1)C1CCN(C(=O)OC(C)(C)C)CC1 [CBK167517] | 101 | –
50 | CCCNCc1ccc(-c2nnn(CC(=O)NCc3ccc(C4CCC4)cc3)n2)cc1 [CBK167525C] | 105 | –
51 | CN(C)CCNC(=O)c1ccc(-c2cnc(OCC3CCN(C(=O)OC(C)(C)C)CC3)nc2)cc1 [CBK167544] | 89.8 | –
52 | C[C@H](NC(=O)Cn1cc(-c2ccc(CN3CCCC3)cc2)nn1)c1ccc(Br)cc1 [CBK167692] | 86 | –

Row | Compound | viability at 28.5 h, 10 µM (% viability) [%] | viability at 28.5 h, 10 µM [%]
53 | COc1cc(OC)cc(C(=O)N2CCC3(CC2)CC(=O)c2cc(C)ccc2O3)c1 [CBK167804] | 94.6 | –
54 | Cc1cc(N2CCC(N3CCN(C)CC3)CC2)nc(N)n1 [CBK167964] | 94.3 | –
55 | CCOc1cc(OCC)cc(C(=O)N2CCC3(CC2)CC(=O)c2cc(CC)ccc2O3)c1 [CBK168009] | 101 | –
56 | CCOc1cc(OCC)cc(C(=O)N2CCC3(CC2)CC(=O)c2cc(OCC)ccc2O3)c1 [CBK168013] | 87.2 | –
57 | CCOc1cc(OCC)cc(C(=O)N2CCC3(CC2)CC(=O)c2ccc(OCC)c(C)c2O3)c1 [CBK168015] | 112 | –
58 | CCOc1cc(OCC)cc(C(=O)N2CCC3(CC2)CC(=O)c2ccc(N)cc2O3)c1 [CBK168018] | 111 | –
59 | CCc1ccc2c(c1)C(=O)CC1(CCN(C(=O)c3cc(OC)c(C)c(OC)c3)CC1)O2 [CBK168098] | 112 | –
60 | COc1cc(C(=O)N2CCCC3(CC(=O)c4ccc(C)cc4O3)C2)cc(OC)c1C (centres unmarked) [CBK168239] | 87.2 | –
61 | COc1cc(C(=O)N2CCC3(CC2)CC(=O)c2cc(C)ccc2O3)cc(-c2ccc(OC)c(OC)c2)c1 [CBK168271] | 88.9 | –
62 | COc1cc(C(=O)N2CCC3(CC2)CC(=O)c2ccc(C)cc2O3)cc(-c2ccc(OC)c(OC)c2)c1 [CBK168282] | 89.5 | –
63 | NC1CCN(C(=O)c2cn(C3CC3)c3cc(Cl)c(F)cc3c2=O)CC1 [CBK168626] | 93.3 | –
64 | O/N=C/c1c[nH]c2ccccc12 [CBK168630] | 102 | –
65 | CCOc1cc(OCC)cc(C(=O)N2CCC3(CC2)CC(=O)c2cc(OCCN(C)C)ccc2O3)c1 [CBK169003T] | 89.3 | –
66 | COc1cc(OC)cc(C(=O)N2CCC3(CC2)CC(=O)c2ccc(OCCN(C)C)cc2O3)c1 [CBK169008T] | 92.8 | –
67 | COc1cc(C(=O)N2CCC3(CC2)CC(=O)c2ccc(-c4ccccc4)cc2O3)cc(OC)c1C [CBK169037] | 89.9 | –
68 | COc1cc(C(=O)N2CCC3(CC2)CC(=O)c2cc(CN4CCOCC4)ccc2O3)cc(OC)c1C [CBK169182] | 109 | –
69 | COc1cc(C(=O)N2CCC3(CC2)CC(=O)c2cc(CN4CCN(C)CC4)ccc2O3)cc(OC)c1C [CBK169185] | 94.6 | –
70 | O=C(CCCC1CCNCC1)Nc1nnc(C2CC2)s1 [CBK169224] | 97.1 | –
71 | CS(=O)(=O)c1ccc(-c2ccc3c(c2)OCCN(C2CCN(C(=O)Oc4ccccc4)CC2)C3)cc1 [CBK169259] | – | 79.9
72 | CS(=O)(=O)c1ccc(-c2ccc3c(c2)OCCN(C2CCN(C(=O)CC(F)(F)F)CC2)C3)cc1 [CBK169260] | 90.8 | –
73 | CS(=O)(=O)c1ccc(-c2ccc3c(c2)CN(C2CCN(C(=O)c4ccccc4)CC2)CCO3)cc1 [CBK169265] | 103 | –
74 | Cc1nc2c(C(=O)NCCNC(=O)c3cccnc3)ncn2c(C)c1Cc1ccc(F)c(Cl)c1 [CBK169332] | 89.8 | –
75 | CN(C)CCOc1ccc2c(c1)OC1(CCN(C(=O)c3ccc4sc(N)nc4c3)CC1)CC2=O [CBK169380] | 91.4 | –
76 | COc1ccc(-c2ccc3c(c2)OC2(CCN(C(=O)c4cc(OC)c(C)c(OC)c4)CC2)CC3=O)cn1 [CBK169424] | 107 | –
77 | O=C1CC2(CCN(C(=O)c3ccc4cc[nH]c4c3)CC2)Oc2ccc(CN3CCOCC3)cc21 [CBK169469] | 121 | –
